Assay results taken from patent US8138189B2, “Substituted benzene compounds as modulators of the glucocorticoid receptor” (Hoffman-La Roche Inc., priority 2009, dated 2012).

Molecular target: T1, full length human recombinant glucocorticoid receptor (Homo sapiens, UniProt P04150)
T1 construct: partially purified full length human recombinant glucocorticoid receptor; purchased Panvera/Invitrogen PV4302
T1 sequence (P04150 1-777): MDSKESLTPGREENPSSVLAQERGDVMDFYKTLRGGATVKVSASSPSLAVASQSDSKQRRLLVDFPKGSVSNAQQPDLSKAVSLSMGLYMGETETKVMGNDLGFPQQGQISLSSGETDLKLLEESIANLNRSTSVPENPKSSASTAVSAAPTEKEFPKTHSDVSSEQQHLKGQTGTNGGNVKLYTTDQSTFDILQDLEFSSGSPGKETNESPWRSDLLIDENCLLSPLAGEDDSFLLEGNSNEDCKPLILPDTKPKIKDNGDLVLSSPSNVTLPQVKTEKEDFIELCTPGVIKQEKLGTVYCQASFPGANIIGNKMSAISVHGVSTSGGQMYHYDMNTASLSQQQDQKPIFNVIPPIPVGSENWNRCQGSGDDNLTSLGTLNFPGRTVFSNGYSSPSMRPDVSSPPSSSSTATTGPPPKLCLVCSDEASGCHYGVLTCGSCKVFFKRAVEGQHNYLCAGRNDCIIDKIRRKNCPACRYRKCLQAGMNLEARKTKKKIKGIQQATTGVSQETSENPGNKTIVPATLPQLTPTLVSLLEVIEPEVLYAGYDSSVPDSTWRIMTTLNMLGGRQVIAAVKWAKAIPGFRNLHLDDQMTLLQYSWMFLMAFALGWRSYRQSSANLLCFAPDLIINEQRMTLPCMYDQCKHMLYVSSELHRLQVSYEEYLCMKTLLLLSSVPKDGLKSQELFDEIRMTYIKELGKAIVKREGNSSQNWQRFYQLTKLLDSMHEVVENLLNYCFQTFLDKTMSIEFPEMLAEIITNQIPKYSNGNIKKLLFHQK
Experiment: Glucocorticoid Receptor Binding Assay (fluorescence polarization competitor assay, Fluormone GS Far Red tracer)
How it was run: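 Partially purified full-length recombinant human GR with a stabilizing coactivator peptide was incubated with Fluormone GS Far Red tracer and serially diluted compound for 3 h at 22 °C in the dark, pH 7.4. Fluorescence polarization was read at 610-660 nm. IC50 came from sigmoidal fitting, and Ki from Cheng-Prusoff.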

Structure (SMILES)	Ki [nM]
CC(c1ccc(Oc2ccc(CC(=O)O)cc2)cc1Cl)C(O)(c1ccnc(Cl)c1)C(F)(F)F (stereo not shown) [Example 79, (4-{3-Chloro-4-[2-(2-chloro-pyridin-4-yl)-3,3,3-trifluoro-2-hydroxy-1-methyl-propyl]-phenoxy}-phenyl)-acetic acid]	13.4
CC(c1ccc(Oc2ccc(C(=O)O)cc2)cc1Cl)C(O)(c1ccnc(Cl)c1)C(F)(F)F (stereo not shown) [Example 80, 4-{3-Chloro-4-[2-(2-chloro-pyridin-4-yl)-3,3,3-trifluoro-2-hydroxy-1-methyl-propyl]-phenoxy}-benzoic acid]	2.1
CC(c1ccc(Oc2ccc(C(=O)O)nc2)cc1Cl)C(O)(c1ccnc(Cl)c1)C(F)(F)F (stereo not shown) [Example 81, 5-{3-Chloro-4-[2-(2-chloro-pyridin-4-yl)-3,3,3-trifluoro-2-hydroxy-1-methyl-propyl]-phenoxy}-pyridine-2-carboxylic acid]	26.5
CC(c1ccc(Oc2ccc(C(=O)O)c(Cl)c2)cc1Cl)C(O)(c1ccnc(Cl)c1)C(F)(F)F (stereo not shown) [Example 82, 2-Chloro-4-{3-chloro-4-[2-(2-chloro-pyridin-4-yl)-3,3,3-trifluoro-2-hydroxy-1-methyl-propyl]-phenoxy}-benzoic acid]	5.1
CC(c1ccc(Oc2ccc(C(=O)O)c(F)c2)cc1Cl)C(O)(c1ccnc(Cl)c1)C(F)(F)F (stereo not shown) [Example 83, 4-{3-Chloro-4-[2-(2-chloro-pyridin-4-yl)-3,3,3-trifluoro-2-hydroxy-1-methyl-propyl]-phenoxy}-2-fluoro-benzoic acid]	5.6
CC(c1ccc(Oc2ccccc2C(=O)O)cc1Cl)C(O)(c1ccnc(Cl)c1)C(F)(F)F (stereo not shown) [Example 84, 2-{3-Chloro-4-[2-(2-chloro-pyridin-4-yl)-3,3,3-trifluoro-2-hydroxy-1-methyl-propyl]-phenoxy}-benzoic acid]	35.5
CC(c1ccc(Oc2ccc(OCC(=O)O)cc2)cc1Cl)C(O)(c1ccnc(Cl)c1)C(F)(F)F (stereo not shown) [Example 85, (4-{3-Chloro-4-[2-(2-chloro-pyridin-4-yl)-3,3,3-trifluoro-2-hydroxy-1-methyl-propyl]-phenoxy}-phenoxy)-acetic acid]	1.4
COc1cc(Oc2ccc(C(C)C(O)(c3ccnc(Cl)c3)C(F)(F)F)c(Cl)c2)ccc1C(=O)O (stereo not shown) [Example 86, 4-{3-Chloro-4-[2-(2-chloro-pyridin-4-yl)-3,3,3-trifluoro-2-hydroxy-1-methyl-propyl]-phenoxy}-2-methoxy-benzoic acid]	16.4
CC(c1ccc(Oc2cccc(CC(=O)O)c2)cc1Cl)C(O)(c1ccnc(Cl)c1)C(F)(F)F (stereo not shown) [Example 87, (3-{3-Chloro-4-[2-(2-chloro-pyridin-4-yl)-3,3,3-trifluoro-2-hydroxy-1-methyl-propyl]-phenoxy}-phenyl)-acetic acid]	15.1
CC(c1ccc(Oc2ccc(C(=O)O)cc2F)cc1Cl)C(O)(c1ccnc(Cl)c1)C(F)(F)F (stereo not shown) [Example 88, 4-{3-Chloro-4-[2-(2-chloro-pyridin-4-yl)-3,3,3-trifluoro-2-hydroxy-1-methyl-propyl]-phenoxy}-3-fluoro-benzoic acid]	1.2
CC(c1ccc(Oc2ccc(C(=O)O)cc2Cl)cc1Cl)C(O)(c1ccnc(Cl)c1)C(F)(F)F (stereo not shown) [Example 89, 3-Chloro-4-{3-chloro-4-[2-(2-chloro-pyridin-4-yl)-3,3,3-trifluoro-2-hydroxy-1-methyl-propyl]-phenoxy}-benzoic acid]	3.4
CC(c1ccc(Oc2ccc(Cl)c(C(=O)O)c2)cc1Cl)C(O)(c1ccnc(Cl)c1)C(F)(F)F (stereo not shown) [Example 90, 2-Chloro-5-{3-chloro-4-[2-(2-chloro-pyridin-4-yl)-3,3,3-trifluoro-2-hydroxy-1-methyl-propyl]-phenoxy}-benzoic acid]	4.5
CC(c1ccc(Oc2ccc(F)c(C(=O)O)c2)cc1Cl)C(O)(c1ccnc(Cl)c1)C(F)(F)F (stereo not shown) [Example 91, 5-{3-Chloro-4-[2-(2-chloro-pyridin-4-yl)-3,3,3-trifluoro-2-hydroxy-1-methyl-propyl]-phenoxy}-2-fluoro-benzoic acid]	7.1
CCOC(=O)c1ccc(COc2ccc(C(C)C(O)(c3ccnc(C)c3)C(F)(F)F)c(Cl)c2)cc1 (stereo not shown) [Example 93, 4-{3-Chloro-4-[3,3,3-trifluoro-2-hydroxy-1-methyl-2-(2-methyl-pyridin-4-yl)-propyl]-phenoxymethyl}-benzoic acid ethyl ester]	8.2
Cc1cc(C(O)(C(C)c2ccc(OCc3ccc(C(=O)O)cc3)cc2Cl)C(F)(F)F)ccn1 (stereo not shown) [Example 94, 4-{3-Chloro-4-[3,3,3-trifluoro-2-hydroxy-1-methyl-2-(2-methyl-pyridin-4-yl)-propyl]-phenoxymethyl}-benzoic acid]	4
COC(=O)c1ccc(COc2ccc(C(C)C(O)(c3ccnc(C)c3)C(F)(F)F)c(Cl)c2)c(OC)c1 (stereo not shown) [Example 95, 4-{3-Chloro-4-[3,3,3-trifluoro-2-hydroxy-1-methyl-2-(2-methyl-pyridin-4-yl)-propyl]-phenoxymethyl}-3-methoxy-benzoic acid methyl ester]	3.6
COc1cc(C(=O)O)ccc1COc1ccc(C(C)C(O)(c2ccnc(C)c2)C(F)(F)F)c(Cl)c1 (stereo not shown) [Example 96, 4-{3-Chloro-4-[3,3,3-trifluoro-2-hydroxy-1-methyl-2-(2-methyl-pyridin-4-yl)-propyl]-phenoxymethyl}-3-methoxy-benzoic acid]	6.1
CCOC(=O)c1ccc(COc2ccc(C(C)C(O)(c3ccnc(C)c3)C(F)(F)F)c(Cl)c2)cn1 (stereo not shown) [Example 97, 5-{3-Chloro-4-[3,3,3-trifluoro-2-hydroxy-1-methyl-2-(2-methyl-pyridin-4-yl)-propyl]-phenoxymethyl}-pyridine-2-carboxylic acid ethyl ester]	9.1
Cc1cc(C(O)(C(C)c2ccc(OCc3ccc(C(=O)O)nc3)cc2Cl)C(F)(F)F)ccn1 (stereo not shown) [Example 98, 5-{3-Chloro-4-[3,3,3-trifluoro-2-hydroxy-1-methyl-2-(2-methyl-pyridin-4-yl)-propyl]-phenoxymethyl}-pyridine-2-carboxylic acid]	40.9
COC(=O)c1ccnc(COc2ccc(C(C)C(O)(c3ccnc(C)c3)C(F)(F)F)c(Cl)c2)c1 (stereo not shown) [Example 99, 2-{3-Chloro-4-[3,3,3-trifluoro-2-hydroxy-1-methyl-2-(2-methyl-pyridin-4-yl)-propyl]-phenoxymethyl}-isonicotinic acid methyl ester]	9.1
Cc1cc(C(O)(C(C)c2ccc(OCc3cc(C(=O)O)ccn3)cc2Cl)C(F)(F)F)ccn1 (stereo not shown) [Example 100, 2-{3-Chloro-4-[3,3,3-trifluoro-2-hydroxy-1-methyl-2-(2-methyl-pyridin-4-yl)-propyl]-phenoxymethyl}-isonicotinic acid]	34.9
CCOC(=O)c1cc(COc2ccc(C(C)C(O)(c3ccnc(C)c3)C(F)(F)F)c(Cl)c2)ccn1 (stereo not shown) [Example 101, 4-{3-Chloro-4-[3,3,3-trifluoro-2-hydroxy-1-methyl-2-(2-methyl-pyridin-4-yl)-propyl]-phenoxymethyl}-pyridine-2-carboxylic acid ethyl ester]	9.4
Cc1cc(C(O)(C(C)c2ccc(OCc3ccnc(C(=O)O)c3)cc2Cl)C(F)(F)F)ccn1 (stereo not shown) [Example 102, 4-{3-Chloro-4-[3,3,3-trifluoro-2-hydroxy-1-methyl-2-(2-methyl-pyridin-4-yl)-propyl]-phenoxymethyl}-pyridine-2-carboxylic acid]	20.2
COC(=O)c1ccc(Oc2ccc(C(C)C(O)(c3ccnc(C)c3)C(F)(F)F)c(Cl)c2)nn1 (stereo not shown) [Example 104, 6-{3-Chloro-4-[3,3,3-trifluoro-2-hydroxy-1-methyl-2-(2-methyl-pyridin-4-yl)-propyl]-phenoxy}-pyridazine-3-carboxylic acid methyl ester]	87.4
Cc1cc(C(O)(C(C)c2ccc(Oc3ccc(C(=O)O)nn3)cc2Cl)C(F)(F)F)ccn1 (stereo not shown) [Example 105, 6-{3-Chloro-4-[3,3,3-trifluoro-2-hydroxy-1-methyl-2-(2-methyl-pyridin-4-yl)-propyl]-phenoxy}-pyridazine-3-carboxylic acid]	361
CCOC(=O)c1ccc(COc2ccc(C(C)C(O)(c3ccncc3)C(F)(F)F)c(Cl)c2)cc1 (stereo not shown) [Example 106, 4-[3-Chloro-4-(3,3,3-trifluoro-2-hydroxy-1-methyl-2-pyridin-4-yl-propyl)-phenoxymethyl]-benzoic acid ethyl ester]	47.1
CC(c1ccc(OCc2ccc(C(=O)O)cc2)cc1Cl)C(O)(c1ccncc1)C(F)(F)F (stereo not shown) [Example 107, 4-[3-Chloro-4-(3,3,3-trifluoro-2-hydroxy-1-methyl-2-pyridin-4-yl-propyl)-phenoxymethyl]-benzoic acid]	30.8
COc1cc(C(=O)O)ccc1COc1ccc(C(C)C(O)(c2ccncc2)C(F)(F)F)c(Cl)c1 (stereo not shown) [Example 109, 4-[3-Chloro-4-(3,3,3-trifluoro-2-hydroxy-1-methyl-2-pyridin-4-yl-propyl)-phenoxymethyl]-3-methoxy-benzoic acid]	79.2
